# Data taken from US8648105B2, “Diarylthiohydantoin compounds” (The Regents of the University of California, priority 2006, dated 2014).
# Entries after “also recorded” stand apart in the source; their conditions may differ.
# How the values were obtained:
# [1] = test system: AR-overexpressed LNCaP xenograft tumors; assay: AR-overexpressed LNCaP xenograft model in castrated SCID mice; assay type: in vivo
# Protocol: FIG. 7 is a graph of tumor size. AR overexpressing LNCaP cells were injected in the flanks of castrated SCID mice, subcutaneously. When tumors reached about 100 cubic mm, they were randomized into five groups. Each group had nine animals. […]. The tumors were measured three-dimensionally, width, length and depth, using a caliper.
# FIG. 8 depicts experimental results of tumor size. At day 18, the animals were imaged via an optical CCD camera, 3 hours after last dose of treatment. A ROI was drawn over the tumor for luciferase activity measurement in photon/second. The right panels is a representation of the ROIs measurements.
# Compounds of the invention are used to examine if the diaryihydantoin derivatives have in vivo effects on hormone refractory prostate cancer. First we examine this compound on xenograft tumors established from AR-overexpressed LNCaP cells. Engineered cells in Matrigel (Collaborative Biomedical) are injected subcutaneously into the flanks of the castrated male SCID mice. Tumor size is measured weekly in three dimensions using calipers. After xenograft tumors established (tumor size at least 40 mm^3), mice with tumors are randomized and treated with different doses of compounds orally once daily. The inhibitory effect on growth of AR-overexpressed LNCaP xenograft model is studied as follows. Mice with established LN-AR xenograft tumors are randomized and treated with indicated compounds orally once daily. Tumor size are measured by caliber.
# All animal experiments were performed in compliance with the guidelines of the Animal Research Committee of the University of California at Los Angeles. Animals were bought from Taconic and maintained in a laminar flow tower in a defined flora colony. LNCaP-AR and LNCaP-vector cells were maintained in RPMI medium supplemented with 10% FBS. 10^6 cells in 100 μl of 1:1 Matrigel to RPMI medium were injected subcutaneously into the flanks of intact or castrated male SCID mice. Tumor size was measured weekly in three dimensions (length×width×depth) using calipers. Mice were randomized to treatment groups when tumor size reached approximately 100 mm^3. Drugs were given orally every day at 10 mg/kg and 50 mg/kg. To obtain pharmacodynamic readout, the animals were imaged via an optical CCD camera, 3 hours after last dose of the treatment. A ROI is drawn over the tumor for luciferase activity measurement in photon/second. The right panels were a representation of the ROIs measurements. […]
# [2] = test system: hormone refractory LAPC4 xenograft; assay: Hormone refractory LAPC4 xenograft model; assay type: in vivo, mice
# Protocol: Compounds of the invention are also tested in another xenograft model of hormone refractory prostate cancer, hormone refractory LAPC4. This model was established from passaging of hormone sensitive prostate cancer in castrated mice, which mimics the clinical progression of prostate cancer (2). […].
# LogP = assay type: physicochemical
# urogenital tract = assay: Luciferase transgenic mice with testosterone pellet, urogenital tract weight and photon emission (FIG. 22); assay type: in vivo; details: castrated mice with testosterone pellet, 10 mg/kg per day, 14 days
# Protocol: FIG. 22 presents results of an experiment conducted with wild type nontransgenic mice (WT), castrated luciferase transgenic mice (Cast), and non-castrated luciferase transgenic mice (Intact). Data are shown for castrated luciferase transgenic mice treated with an implanted testosterone pellet yielding 12.5 mg per kilogram body weight with a 90 day release period (T/Cast), and data are shown for non-castrated luciferase transgenic mice treated with an implanted testosterone pellet yielding 12.5 mg per kilogram body weight with a 90 day release period (Intact+T). […]. (A) Urogenital tract weight at 14 days. (B) Photon emission rate at 14 days. In all cases, a hormone refractory disease state was not induced.
# […]. Moreover, the higher the dose, the lower the PSA level. […]. The weight and rate of photon emission increased for both intact and castrated mice.
# [3] = test system: LNCaP hormone sensitive xenograft; assay: LNCaP hormone sensitive xenograft model
# Protocol: Each set included 6 mice. The mice were treated with 10 mg/kg per day.
# 1AR cell line = assay: Luciferase activity in the 1AR cell line; assay type: cell-based; details: 1.25 to 10 μmol
# Source text: (§1) NC4 differs from NC3 only in that an amino group is substituted for a hydroxyl group. […] The effect of NC3 and NC4 on luciferase activity in the 1AR cell line was studied by administering various compounds at concentrations ranging from 1.25 to 10 μmol and observing PSA levels. […] The effect of NC3 and NC4 on luciferase activity in the 4AR cell line was studied by administering various compounds at concentrations ranging from 1.25 to 10 μmol and observing luciferase activity. […] The effect of NC3 and NC4 on PSA levels in the LN/AR cell line was studied by administering various compounds at concentrations ranging from 1.25 to 10 μmol and observing luciferase activity.
# 4AR cell line = assay: Luciferase activity in the 4AR cell line; assay type: cell-based; details: 1.25 to 10 μmol
# Source text: as §1
# AR = biological target: T1, AR (Homo sapiens, UniProt P10275); assay type: cell-based; parameters: Fold induction, AR response reporter; details: LN/AR cell line, 1.25 to 10 μmol
# T1 sequence (P10275 1-920): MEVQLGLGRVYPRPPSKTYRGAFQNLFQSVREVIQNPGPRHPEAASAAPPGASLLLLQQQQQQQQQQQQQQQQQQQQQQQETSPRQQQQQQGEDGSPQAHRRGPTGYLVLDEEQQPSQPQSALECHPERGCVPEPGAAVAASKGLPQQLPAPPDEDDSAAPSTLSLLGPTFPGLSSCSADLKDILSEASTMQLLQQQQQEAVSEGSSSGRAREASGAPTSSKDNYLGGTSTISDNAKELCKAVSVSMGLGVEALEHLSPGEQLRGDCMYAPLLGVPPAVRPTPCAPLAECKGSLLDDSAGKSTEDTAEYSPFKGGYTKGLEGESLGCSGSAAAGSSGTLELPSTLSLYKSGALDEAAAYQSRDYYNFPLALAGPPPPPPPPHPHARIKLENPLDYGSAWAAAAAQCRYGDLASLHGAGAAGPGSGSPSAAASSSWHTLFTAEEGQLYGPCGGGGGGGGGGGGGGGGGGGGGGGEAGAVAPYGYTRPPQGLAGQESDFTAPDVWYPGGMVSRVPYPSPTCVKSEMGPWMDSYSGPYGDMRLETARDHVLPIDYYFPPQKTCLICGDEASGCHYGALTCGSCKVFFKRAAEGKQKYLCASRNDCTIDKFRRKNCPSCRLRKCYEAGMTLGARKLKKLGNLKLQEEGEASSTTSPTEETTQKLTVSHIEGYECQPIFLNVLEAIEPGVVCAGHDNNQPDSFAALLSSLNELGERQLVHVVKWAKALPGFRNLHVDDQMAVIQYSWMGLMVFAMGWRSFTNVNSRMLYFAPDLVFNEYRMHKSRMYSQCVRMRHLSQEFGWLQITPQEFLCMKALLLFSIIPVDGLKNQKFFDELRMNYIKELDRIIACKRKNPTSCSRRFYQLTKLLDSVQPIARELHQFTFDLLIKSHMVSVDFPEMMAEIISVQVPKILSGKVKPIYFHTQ
# Protocol: It is well established that PSA levels are indicators of AR activities in prostate cancer. […] The LNCaP-AR cells are a line of lymph node carcinoma of prostate cells transduced with a plasmid that makes express androgen receptors. […] After four days incubation, secreted PSA levels were assayed using PSA ELISA kits (American Qualex, San Clemente, Calif.)
SMILES,"photon emission associated with luciferase activity ([1]; FIG. 8, day 18, relative to vehicle)","tumor growth / tumor volume ([1]; oral once daily, FIG. 7: 10 or 50 mg/kg, 18 days)",growth and PSA expression [2],logP (LogP),urogenital tract weight and photon emission (urogenital tract),"rate of tumor growth (tumor volume) ([3]; 10 mg/kg per day, FIG. 6)","PSA levels ([3]; FIG. 16, relative to vehicle solution)",luciferase activity (comparison) (1AR cell line),luciferase activity (comparison) (4AR cell line),PSA level (comparison) (AR)
"CC(O)(CS(=O)(=O)c1ccc(F)cc1)C(=O)Nc1ccc(C#N)c(C(F)(F)F)c1 (stereo not shown) [Bicalutamide, N-[4-cyano-3-(trifluoromethyl)phenyl]-3-[(4-fluorophenyl)sulfonyl]-2-hydroxy-2-methylpropanamide, reference compound]",remained about the same or increased,did not inhibit growth; also recorded: tumors continued to grow,did not inhibit growth and PSA expression,2.91,decrease in weight and photon emission,slower than mice treated with vehicle solution,stayed the same or increased,–,–,–
"CC1(C)C(=O)N(c2ccc(C#N)c(C(F)(F)F)c2)C(=S)N1c1ccc(O)cc1 [NC3, 4-[3-(4-hydroxyphenyl)-4,4-dimethyl-5-oxo-2-thioxoimidazolidin-1-yl]-2-trifluoromethylbenzonitrile]",–,–,–,–,–,–,–,less than the luciferase activity upon exposure to NC4,less than the luciferase activity upon exposure to NC4,less than the PSA level upon exposure to NC4
